For data set [1], the system named is murine leukemic L 1210 cells. Nature of the data set: Growth inhibition of L 1210 cells in culture. It is filed as cell-based. The conditions noted are these: for IC50: Mus musculus; for growth of murine leukemic cells (in words): murine leukemic L 1210 cells in culture. The procedure:
(§1) In an example, L 1210 cells were inoculated in RPMI (Rosewell Park Memorial Institute) 1640 medium containing 20% calf serum at the cell density of 5×10^4 cells/ml, and the compound in the present invention was simultaneously added to the medium at the concentration of 0.1 and 0.5 μg/ml and incubated at 37° C. in a CO2 incubator. 50% growth inhibition concentration of the compound over controls was determined. L 1210 cells as described above were also inoculated at 5×10^5 cells in RPMI 1640 medium containing 10% calf serum and incubated at 37° C. for 1 to 2 hours in a CO2 incubator. The cells were cultured for 15 min. at 37° C. after the compounds according to the present invention at various concentrations were added, and then ^14 C-uridine (0.05 μCi/ml) or ^14 C-thymidine (0.05 μCi/ml) was added and incubated for further 60 min. at 37° C. After stopping the pulse-labeling by addition of 10% trichloroacetic acid (TCA) solution to the reaction mixture, acid-insoluble materials were precipitated, washed three times with 5 to 10% TCA, and dissolved in a small amount of formic acid. Then, radioactivity was determined, and inhibitory effects on the DNA and RNA biosynthesis were indicated by the 50% inhibition concentration (IC50) of the incorporation of radioactivity over controls.

Data set [2] relates to DNA synthesis in murine leukemic L 1210 cells. Nature of the data set: DNA biosynthesis in L 1210 cells (14C-thymidine incorporation). The note with it: Mus musculus, L1210, 15 min with compound then 60 min 14C-thymidine, 37° C. The format is cell-based. On the procedure:
as §1

For data set [3], the system named is RNA synthesis in murine leukemic L 1210 cells. Nature of the data set: RNA biosynthesis in L 1210 cells (14C-uridine incorporation). The format is cell-based. The conditions noted are these: for IC50: Mus musculus, L1210, 15 min with compound then 60 min 14C-uridine, 37° C.; for Inhibition ratio DNA/RNA: ratio of IC50 for DNA synthesis to IC50 for RNA synthesis. On the procedure: 50% growth inhibition concentration of the compound over controls was determined. […] The cells were cultured for 15 min. at 37° C. after the compounds according to the present invention at various concentrations were added, and then ^14 C-uridine (0.05 μCi/ml) or ^14 C-thymidine (0.05 μCi/ml) was added and incubated for further 60 min. at 37° C. After stopping the pulse-labeling by addition of 10% trichloroacetic acid (TCA) solution to the reaction mixture, acid-insoluble materials were precipitated, washed three times with 5 to 10% TCA, and dissolved in a small amount of formic acid.

The test system of data set [4] is L 1210 leukemia. Nature of the data set: Antitumor effect on L 1210 leukemia in mice. It is filed as in vivo, mice (CDF1). The note with it: i.p., once daily for 10 days from 24 hours after inoculation of 1×10^6 L 1210 cells i.p. On the procedure:
For example, when CDF1 mice weighing 18 to 22 grams were inoculated with 1×10^6 cells of L 1210 cells intraperitoneally and the compound was administered intraperitoneally once daily for 10 days consecutively 24 hours after inoculation, the survival time of mice was over 200% by T/C(%) at optimum dose as shown in the following table.

A short description of data set [5]: Acute toxicity in mice, single intravenous injection. The conditions noted are these: mouse, in vivo.
Where [6] appears, read: L1210, L 1210 cells, RPMI 1640, 20% calf serum, 5×10^4 cells/ml, 37° C., read-out: IC50 Growth.

Converted amounts (≈) assume the structure as drawn. Read-outs that look alike come from different tables or passages of the source.

For the molecule `CCC1(O)CC(OC2CC(N(C)C)C(OC3CC(O)C(OC4CCC(=O)C(C)O4)C(C)O3)C(C)O2)c2c(cc3c(c2O)C(=O)c2c(O)ccc(O)c2C3=O)C1O` (stereo not drawn) [β-Pyrromycin RDC], the 50% inhibitory concentration (IC50) was 1 µg/mL (≈ 1.27 µM) in data set [1] (setting [6]), 2 µg/mL (≈ 2.55 µM) in data set [2] and 1.5 µg/mL (≈ 1.91 µM) in data set [3]. Further, in data set [3], the “Inhibition ratio DNA/RNA” value is recorded as 1.3. Further, the “T/C (survival time)” value in data set [4] (opt. dose 20 mg/kg/day) stood at 202%. Further, the LD50 in data set [5] was 85.5 mg/kg.
As to `COc1cccc2c1C(=O)c1c(O)c3c(c(O)c1C2=O)C[C@@](O)(C(=O)CO)C[C@@H]3O[C@H]1C[C@H](N)[C@H](O)[C@H](C)O1` [Adriamycin, reference compound], the “T/C (survival time)” value in data set [4] (opt. dose 1 mg/kg/day) is on record as 286%. The molecule further displayed an LD50 in data set [5] of 14.2 mg/kg.
For `CCC1(O)CC(OC2CC(N(C)C)C(OC3CC(O)C(OC4CCC(=O)C(C)O4)C(C)O3)C(C)O2)c2c(O)c3c(c(O)c2C1C(=O)OC)C(=O)c1cccc(O)c1C3=O` (stereo not shown) [ε-Rhodomycin RDC], the IC50 in data set [1] (L1210, read-out: IC50 Growth) is 0.01 µg/mL (≈ 0.0121 µM); in data set [2] it was 0.7 µg/mL (≈ 0.846 µM); in data set [3], 0.08 µg/mL (≈ 0.0966 µM). In addition, in data set [1], the “growth of murine leukemic cells (in words)” value (shortened to “growth”) was “suppressed the growth of murine leukemic cells at extremely low concentration”. Further, the “RNA synthesis of L 1210 cells (in words)” value in data set [3] is listed as “inhibited specifically RNA synthesis of L 1210 cells”. The “Inhibition ratio DNA/RNA” value in data set [3] is 8.8. Also, the “T/C (survival time)” value in data set [4] (opt. dose 2 mg/kg/day) is 240%. The same molecule returned an LD50 in data set [5] of 32.5 mg/kg.
In the case of `CCC1(O)CCc2c(O)c3c(c(O)c2C1OC1CC(N(C)C)C(OC2CC(O)C(OC4CCC(O)C(C)O4)C(C)O2)C(C)O1)C(=O)c1cccc(O)c1C3=O` (stereo not shown) [γ-Rhodomycin RDRs], the IC50 came to 0.09 µg/mL (≈ 0.117 µM) in data set [1] (setting [6]), 0.7 µg/mL (≈ 0.907 µM) in data set [2] and 0.3 µg/mL (≈ 0.389 µM) in data set [3]. Also, the “Inhibition ratio DNA/RNA” value in data set [3] stood at 2.3. The “T/C (survival time)” value in data set [4] (opt. dose 2 mg/kg/day) came out at 203%. The molecule also yielded an LD50 in data set [5] of 40.6 mg/kg.
In the case of `CCC1(O)CC(OC2CC(N(C)C)C(OC3CC(O)C(OC4CCC(=O)C(C)O4)C(C)O3)C(C)O2)c2c(O)c3c(c(O)c2C1O)C(=O)c1cccc(O)c1C3=O` (stereo not drawn) [β-Rhodomycin RDC], the IC50 was determined as 0.01 µg/mL (≈ 0.0127 µM) in data set [1] (setting [6]), 0.57 µg/mL (≈ 0.725 µM) in data set [2] and 0.15 µg/mL (≈ 0.191 µM) in data set [3]. The “growth” value in data set [1] was “suppressed the growth of murine leukemic cells at extremely low concentration”. For the same molecule, the “Inhibition ratio DNA/RNA” value in data set [3] came out at 3.8. Further, the “T/C (survival time)” value in data set [4] (opt. dose 2 mg/kg/day) is 306%. In addition, the LD50 in data set [5] turned out to be 28 mg/kg.
On to `CCC1(O)CCc2c(O)c3c(c(O)c2C1OC1CC(N(C)C)C(OC2CC(O)C(OC4CCC(=O)C(C)O4)C(C)O2)C(C)O1)C(=O)c1cccc(O)c1C3=O` (stereo not shown) [γ-Rhodomycin RDC], for which the figures for the IC50 in data set [1] (setting [6]), in data set [2] and in data set [3] were 0.11 µg/mL (≈ 0.143 µM), 0.85 µg/mL (≈ 1.1 µM) and 0.28 µg/mL (≈ 0.364 µM), respectively. Besides, in data set [3], the “Inhibition ratio DNA/RNA” value was 3.0. Moreover, the “T/C (survival time)” value in data set [4] (opt. dose 2 mg/kg/day) is listed as 209%. The molecule also came in with an LD50 in data set [5] of 39.8 mg/kg.
For the molecule `CCC1(O)CC(OC2CC(N(C)C)C(OC3CC(O)C(OC4CCC(=O)C(C)O4)C(C)O3)C(C)O2)c2c(O)c3c(c(O)c2C1C(=O)OC)C(=O)c1c(O)ccc(O)c1C3=O` (stereo not shown) [ε-Isorhodomycin RDC], the IC50 in data set [1] (L1210, read-out: IC50 Growth) came to 0.007 µg/mL (≈ 0.0083 µM). The “growth” value in data set [1] is “suppressed the growth of murine leukemic cells at extremely low concentration”. Further, the half-maximal inhibitory concentration (IC50) in data set [2] was found to be 1.25 µg/mL (≈ 1.48 µM). In data set [3], the “RNA synthesis of L 1210 cells (in words)” value was “inhibited specifically RNA synthesis of L 1210 cells”, the IC50 was determined as 0.11 µg/mL (≈ 0.13 µM) and the “Inhibition ratio DNA/RNA” value turned out to be 11.1. For the same molecule, the “T/C (survival time)” value in data set [4] (opt. dose 2 mg/kg/day) was 235%. In data set [5], this molecule displayed an LD50 of 28.2 mg/kg.

The values are drawn from patent US4316011A, “Rhodomycin antibiotics” (Sanraku-Ocean Co., Ltd., priority 1979, dated 1982).
